Read-outs that look alike come from different tables or passages of the source.
Columns and labels:
Glo3/7 = Glo3/7 assay; format: biochemical
Caspase-9 = Caspase-9 (Homo sapiens (Human), UniProt P55211); assay: Caspase-9 Inhibitor Drug Screening Kit, fluorometric (AFC liberation); format: biochemical
Procedure: (§1) The level of inhibition of caspase-1, -3, -5, -7, -9 activity was determined by comparison of the relative fluorescence intensity in samples with or without the compound.

Caspase-7 = Caspase-7 (Homo sapiens (Human), UniProt P55210); assay: Caspase-7 Inhibitor Drug Screening Kit, fluorometric (AFC liberation); format: biochemical
Procedure: as §1

Caspase-3 = Caspase-3 (Homo sapiens (Human), UniProt P42574); assay: Caspase-3 Inhibitor Drug Screening Kit, fluorometric (AFC liberation); format: biochemical
Chain of Caspase-3 (P42574 29-277): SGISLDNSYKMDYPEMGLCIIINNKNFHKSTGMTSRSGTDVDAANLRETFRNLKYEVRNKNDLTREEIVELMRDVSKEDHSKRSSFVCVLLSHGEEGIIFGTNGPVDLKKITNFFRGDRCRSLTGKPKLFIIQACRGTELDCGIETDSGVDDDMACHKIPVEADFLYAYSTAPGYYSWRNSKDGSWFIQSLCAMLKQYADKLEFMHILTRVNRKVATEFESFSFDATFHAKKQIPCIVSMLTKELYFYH
Procedure: as §1

Caspase-5 = Caspase-5 (Homo sapiens (Human), UniProt P51878); assay: Caspase-5 Inhibitor Drug Screening Kit, fluorometric (AFC liberation); format: biochemical; conditions: 30-minute incubation at 37° C.; approximations of the average values; read-out: Caspase enzymatic activity, IC50 (uM) Caspase 5
Chain of Caspase-5 (P51878 137-434): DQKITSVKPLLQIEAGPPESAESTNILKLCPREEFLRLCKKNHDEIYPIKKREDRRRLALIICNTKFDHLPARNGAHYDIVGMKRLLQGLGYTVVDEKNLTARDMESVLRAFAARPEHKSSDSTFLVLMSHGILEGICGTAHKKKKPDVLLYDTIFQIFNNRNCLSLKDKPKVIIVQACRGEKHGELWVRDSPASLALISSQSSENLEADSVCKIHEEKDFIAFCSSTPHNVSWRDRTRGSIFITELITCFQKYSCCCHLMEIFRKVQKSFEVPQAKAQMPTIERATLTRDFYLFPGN
Procedure: as §1

Caspase-1 = Caspase-1 (Homo sapiens (Human), UniProt P29466); assay: Caspase-1 Inhibitor Drug Screening Kit, fluorometric (AFC liberation); format: biochemical; conditions: for IC50: 30-minute incubation at 37° C., approximations of the average values, read-out: Caspase enzymatic activity, IC50 (uM) Caspase 1
Chain of Caspase-1 (P29466 120-404): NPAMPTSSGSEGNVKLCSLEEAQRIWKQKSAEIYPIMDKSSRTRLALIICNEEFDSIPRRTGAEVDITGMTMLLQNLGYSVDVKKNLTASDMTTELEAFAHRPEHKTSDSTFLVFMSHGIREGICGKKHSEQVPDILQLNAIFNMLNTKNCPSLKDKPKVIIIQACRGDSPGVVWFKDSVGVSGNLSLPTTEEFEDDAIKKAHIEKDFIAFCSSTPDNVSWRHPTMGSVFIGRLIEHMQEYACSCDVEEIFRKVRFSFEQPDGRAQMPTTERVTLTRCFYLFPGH
Procedure: as §1

EAE in C57BL/6 mice = assay: Chronic EAE mouse model (MOG35-55 immunization), daily clinical score and body weight; format: in vivo; parameters: key to Delay in onset of the disease / Reduction in severity of the disease / Reduction in body weight loss: +++: high level improvement; ++: moderate improvement; +: small improvement; −: no improvement; conditions: for Delay in onset of the disease / Reduction in body weight loss / Reduction in severity of the disease: average overall effects on the EAE model, i.p.
From the text: The aim of this study was to verify the effectiveness of compounds in a chronic mouse animal model of EAE. EAE is a good proof-of-principle model of neurodegeneration since it encompasses degeneration or destruction of practically all the cells in the central nervous system, includes most major immunomodulatory components, and is able to maintain normal innate regenerative functions in the animal. This is a standard model (Antel J P et al., J Neurosci Res. 1997, 50: 345-353) used mainly to mimic the course evolution of Multiple Sclerosis (MS) in humans, and is commonly used for studying disease mechanisms and testing potential therapies. EAE is induced by immunization with myelin proteins, leading to development of myelin-specific T cells. These autoreactive T cells traffic into CNS parenchyma where they initiate an inflammatory cascade through recruitment of other cells such as monocytes and neutrophils. Accumulation of immune cells within CNS leads to myelin damage, axonal loss and clinical deficit in affected animals. EAE can be induced in a variety of species and strains of animals [mice, Rat, marmoset monkey, rhesus macaques] using various CNS antigens [Myelin Oligodendrocyte Glycoprotein (MOG), proteolipid protein (PLP) and myelin basic protein (MBP)]. Seven to 8 week old female C57BL/6 mice were purchased from Charles River Laboratories, and housed at MISPRO™ animal facility for one week before experimentation for adaptation to the new environment. All proper animal experimentation and ethics approvals were obtained prior to the start of any experiments. Mice were immunized subcutaneously with 100 μg of MOG35-55 (Sheldon Biotechnology Centre, McGill University) in CFA containing 5 mg/ml of desiccated (killed and dried) Mycobacterium tuberculosis H37Ra (Difco, Inc), at two sites on the back. The mice were then injected with 200 ng of pertussis toxin (List Biological Laboratories, Inc) in PBS intraperitoneally on days 0 and 2 using 25 gauge needles and scored daily using an EAE clinical scale as detailed below (Touil T et al., J Neurol Sci. 2008, 271:191-202; Antel J P et al., 1997, supra; Owens T et al., Curr Pharm Des. 2005, 1:1031-1037).
EAE was clinically assessed throughout the experiments by daily scoring using a scale from 0 to 5 as follows: partial limp tail, 0.5; full limp tail, 1; limp tail and waddling gait, 1.5; paralysis of one hind limb, 2; paralysis of one hind limb and partial paralysis of other hind limb, 2.5; paralysis of both hind limbs, 3; ascending paralysis, 3.5; paralysis of trunk, 4; moribund, 4.5; death, 5. In all the EAE models a body weight loss is always associated with the clinical signs. This body weight loss is associated with the loss of the function and the paralysis of the muscle (atrophy inducing loss of weight). For animals showing a clinical sign of 2 or more, the food and the water were presented inside the cage to facilitate eating and drinking.
At the onset of clinical signs of EAE, the mice were treated with 200 μl of Compound 51, 53, 57, 59, 101, 104, 105, 111 or 123 dissolved in 2.5% Dimethyl sulfoxide (DMSO) in PBS, while placebo groups were treated with 2.5% Dimethyl sulfoxide (DMSO) in PBS only, by intraperitoneal injection at different time of the clinical evolution.

[1] = test system: proteolytic cleavage of PARP (poly ADP-ribose polymerase) in Hela cells; assay: Inhibition of staurosporine-induced PARP cleavage in live Hela cells; format: cell-based; conditions: for inhibition at 50 µM: Homo sapiens, HeLa
Procedure: To test the efficacy of caspase-3 inhibitors at the cellular level, the ability of selected compounds to inhibit the proteolytic cleavage of PARP (poly ADP-ribose polymerase) was evaluated in live Hela cells.
Briefly, in this assay Hela cells are seeded in 96 well plates and incubated for 4 hours with staurosporine, a well characterized inducer of apoptosis, alone or together with different concentrations of compound (50, 25, 10 and 3 uM). After formaldehyde-based fixation, the cells are stained with a fluorescein-labeled anti-cleaved PARP antibody (Cell signaling, Cat#: 9547) and counterstained with Hoechst33342 (Invitrogen, Cat#: H3570) to mark all nuclei. Fluorescence images are taken on a Cellomics™ microscope system (Thermo Scientific, Pittsburgh, USA) with the Hoechst stain in the blue channel and the cleaved PARP antibody stain in the green channel. The percentage of cleaved PARP positive cells is determined by calculating the ratio between nuclei with a cleaved PARP antibody staining above a certain threshold and all (Hoechst positive) nuclei. The efficacy of caspase-3 inhibition is determined by calculating the ratio between cleaved PARP positive cells after staurosporine incubation together with compounds and staurosporine incubation without compounds.

[2] = 30-minute incubation at 37° C., approximations of the average values, read-out: Caspase enzymatic activity, IC50 (uM) Caspase 9
[3] = 30-minute incubation at 37° C., approximations of the average values, read-out: Caspase enzymatic activity, IC50 (uM) Caspase 7
[4] = 30-minute incubation at 37° C., approximations of the average values, read-out: Caspase enzymatic activity, IC50 (uM) Caspase 3
[5] = FIG. 1, i.p. from day 10 to 16 post immunization, versus placebo
[6] = 4 h, read-out: % inhibition of PARP cleavage at 50 uM compound, Hela cells, staurosporine 4 hours, 50 uM compound
[7] = FIG. 2, i.p. from day 10 to 16 post immunization, versus placebo

Chain of Caspase-9 (P55211 whole entry): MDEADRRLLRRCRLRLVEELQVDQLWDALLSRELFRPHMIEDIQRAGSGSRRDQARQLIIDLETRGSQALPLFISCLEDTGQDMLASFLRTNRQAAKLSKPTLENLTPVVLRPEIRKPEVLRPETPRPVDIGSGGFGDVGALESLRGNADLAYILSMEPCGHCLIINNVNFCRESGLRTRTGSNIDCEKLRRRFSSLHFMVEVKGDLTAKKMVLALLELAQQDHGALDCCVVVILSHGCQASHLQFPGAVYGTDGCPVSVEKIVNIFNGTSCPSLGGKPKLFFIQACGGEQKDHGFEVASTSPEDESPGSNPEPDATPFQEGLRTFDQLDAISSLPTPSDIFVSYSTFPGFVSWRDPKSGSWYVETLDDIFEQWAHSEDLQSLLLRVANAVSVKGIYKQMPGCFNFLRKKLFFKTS
Chain of Caspase-7 (P55210 whole entry): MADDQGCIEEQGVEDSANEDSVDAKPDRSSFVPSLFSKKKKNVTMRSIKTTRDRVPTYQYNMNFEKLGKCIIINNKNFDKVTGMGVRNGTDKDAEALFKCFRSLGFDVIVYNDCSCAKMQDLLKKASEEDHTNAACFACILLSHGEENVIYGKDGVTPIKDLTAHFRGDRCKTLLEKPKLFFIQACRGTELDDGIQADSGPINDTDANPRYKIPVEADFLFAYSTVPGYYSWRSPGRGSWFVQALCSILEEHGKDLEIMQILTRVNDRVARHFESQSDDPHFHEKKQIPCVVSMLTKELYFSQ

Row | Compound | IC50 (Glo3/7) | IC50 (Caspase-9; [2]) | IC50 (Caspase-7; [3]) | IC50 (Caspase-3; [4]) | IC50 (Caspase-5) | IC50 (Caspase-1) | Cumulative clinical score (EAE in C57BL/6 mice; [5]) | Disease onset (EAE in C57BL/6 mice; [5]) | Loss of body weight (EAE in C57BL/6 mice; [5]) | clinical severity of the disease (EAE in C57BL/6 mice; [5]) | maximal clinical score (EAE in C57BL/6 mice; [5]) | Delay in onset of the disease (EAE in C57BL/6 mice) | Reduction in body weight loss (EAE in C57BL/6 mice) | Reduction in severity of the disease (EAE in C57BL/6 mice) | inhibition at 50 µM [1, 6] | IC50 (Caspase-7; read-out: IC50 caspase-7) | IC50 (Caspase-3; read-out: IC50 caspase-3) | other results
1 | COC(=O)C[C@@H](/C=C/S(C)(=O)=O)NC(=O)[C@@H](NC(=O)[C@@H](NC(=O)[C@H](CC(=O)OC)NC(=O)OCc1ccccc1)C1Cc2ccccc2C1)C(C)C [Compound 51, Z-Asp(β-methyl)-Indanylglycine-Val-Asp(β-methyl)methyl vinyl sulfone] | > 50 µM | > 3 µM | > 3 µM | 1 µM | > 3 µM | > 3 µM | significantly lower compared to placebo | delayed | less than the placebo | reduced significantly | significantly lower compared to placebo | ++ | +++ | ++ | > 50% | – | – | –
2 | CC(C)[C@H](NC(=O)[C@@H](NC(=O)[C@H](CC(=O)O)NC(=O)OCc1ccccc1)C1Cc2ccccc2C1)C(=O)N[C@H](/C=C/S(C)(=O)=O)CC(=O)O [Compound 57, Z-Asp-Indanylglycine-Val-Aspmethyl vinyl sulfone] | 0.1 µM | > 3.33 µM | 0.2 µM | 0.03 µM | > 3.33 µM | 0.9 µM | reduced the cumulative score | without delaying the onset of the disease | did not show and difference compared to placebo | reduced also the clinical severity of the disease | without any significant effect on the maximal score | + | + | + | > 50% | 0.18 to 0.3 µM | 0.03 to 0.09 µM | fold less efficiency against caspase-1 than against group III caspases (Caspase-1): about 29 fold
3 | CC(C)[C@H](NC(=O)[C@H](CCC(=O)O)NC(=O)[C@H](CC(=O)O)NC(=O)OCc1ccccc1)C(=O)N[C@H](/C=C/S(C)(=O)=O)CC(=O)O [Compound 59, Z-Asp-Glu-Val-Aspmethyl vinyl sulfone] | 0.09 µM | 0.5 µM | 0.04 µM | 0.02 µM | > 3.33 µM | 1.4 µM | – | – | – | – | – | ++ | ++ | ++ | – | 0.042 µM | 0.02 µM | IC50 (Caspase-9; read-out: IC50 caspase-9): 0.509 µM; effectivity in inhibiting PARP cleavage ([1]; Hela cells, staurosporine): showing effectivity especially relative to DEVD-fmk
4 | COC(=O)C[C@@H](/C=C/S(C)(=O)=O)NC(=O)[C@@H](NC(=O)[C@@H](NC(=O)[C@H](CC(=O)OC)NC(=O)OCc1ccccc1)c1ccccc1)C(C)C [Compound 101, Z-Asp(β-methyl)-phenylglycine-Val-Asp(β-methyl)methyl vinyl sulfone] | 20 µM | > 3.33 µM | > 3.33 µM | > 3.33 µM | > 3.33 µM | > 3.33 µM | – | – | – | – | – | + | ++ | + | 40% | – | – | Disease onset (EAE in C57BL/6 mice; [7]): delayed; Loss of body weight (EAE in C57BL/6 mice; [7]): less than placebo; severity of the disease (EAE in C57BL/6 mice; [7]): reduced significantly at the early stage of the disease; Loss of body weight (EAE in C57BL/6 mice; FIG. 3, i.p. from day 14 to 19 post immunization, versus placebo): less than in the placebo group; inhibition at 50 µM ([1]; Hela cells, 50 uM, read-out: % of inhibition with compound relative to DEVDFMK): 45%
